# Results taken from ChEMBL document CHEMBL4483862, “Open-source discovery of chemical leads for next-generation chemoprotective antimalarials” (2018).
# System: Plasmodium berghei
# Test: Luciferase/luciferin-expressing antifolate-resistant parasites were used to infect a culture of HepG2 cells that were pre-incubated with compounds. Infected hepatocytes emit light due to the luciferase reaction. Assay results are presented as the percent inhibition of light emission compared to control. […]
# Assay type: functional
# Conditions: sporozoite; for IC90: read-out: LUCIFERASE INFECTION ASSAY - IC90
Compound,IC90 [µM],further results
CN(C)Cc1nc(O)c2c(n1)-c1ccccc1CC2(C)C,4.32,"IC50 (PBLUC_HILL_SLOPE 13.2, PBLUC_R_SQUARED 0.272, read-out: LUCIFERASE INFECTION ASSAY - IC50): 3.66 µM"
CCOCc1c(C(=O)NC2=C(C(=O)OCC)C(CC)=Nc3ccccc3N2)oc2ccccc12,8.81,"IC50 (PBLUC_HILL_SLOPE 13.2, PBLUC_R_SQUARED 0.167, read-out: LUCIFERASE INFECTION ASSAY - IC50): 7.46 µM"
O=C(Nc1ccccc1)Nc1cccc(C(F)(F)F)c1,4.4,"IC50 (PBLUC_HILL_SLOPE 13.3, PBLUC_R_SQUARED 0.408, read-out: LUCIFERASE INFECTION ASSAY - IC50): 3.73 µM"
Cc1ccc2nc(-c3ccc(NC(=S)NCC(C)(C)CN(C)C)cc3)sc2c1,> 10,"IC50 (PBLUC_HILL_SLOPE 12.9, PBLUC_R_SQUARED 0.101, read-out: LUCIFERASE INFECTION ASSAY - IC50): 9.07 µM"
CC(=O)c1cc2c(N)c(-c3nc(C(C)(C)C)no3)sc2nc1C,3.91,"IC50 (PBLUC_HILL_SLOPE 13.1, PBLUC_R_SQUARED 0.312, read-out: LUCIFERASE INFECTION ASSAY - IC50): 3.31 µM"
CCOc1ccc(-c2nc(CC(=O)NCc3ccnc(OC)c3)cs2)cc1,3.46,"IC50 (PBLUC_HILL_SLOPE 12.8, PBLUC_R_SQUARED 0.477, read-out: LUCIFERASE INFECTION ASSAY - IC50): 2.91 µM"
CC(=O)c1cnc2sc(C(=O)OC3CCCCC3)c(C)c2c1,3.88,"IC50 (PBLUC_HILL_SLOPE 13.1, PBLUC_R_SQUARED 0.209, read-out: LUCIFERASE INFECTION ASSAY - IC50): 3.28 µM"
CS(=O)(=O)Nc1cccc(-c2cn3c(-c4cccc(OC(F)(F)F)c4)cnc3cn2)c1,> 7.36,"IC50 (PBLUC_HILL_SLOPE 13.3, PBLUC_R_SQUARED 0.233, read-out: LUCIFERASE INFECTION ASSAY - IC50): 7.15 µM"
CC(C)Cc1ccc(C(Nc2ccc3nnnn3n2)C(C)C)cc1 (stereo not given),3.82,"IC50 (PBLUC_HILL_SLOPE 13.1, PBLUC_R_SQUARED 0.631, read-out: LUCIFERASE INFECTION ASSAY - IC50): 3.23 µM"
Cc1ccc(Nc2cc(-c3ccc(CC(C)C)cc3)ncn2)cc1NS(C)(=O)=O,> 8.04,"IC50 (PBLUC_HILL_SLOPE 12.9, PBLUC_R_SQUARED 0.53, read-out: LUCIFERASE INFECTION ASSAY - IC50): 7.03 µM"
CC1(c2ccc(F)cc2)NC(=O)N(Cc2csc(-c3ccc(F)cc3)n2)C1=O (stereo not given),> 10,"IC50 (PBLUC_HILL_SLOPE 12.9, PBLUC_R_SQUARED 0.121, read-out: LUCIFERASE INFECTION ASSAY - IC50): 9.44 µM"
O=C(CSCCc1nc(-c2ccc(Cl)cc2)cs1)N/N=C/c1ccccc1,3.43,"IC50 (PBLUC_HILL_SLOPE 13.2, PBLUC_R_SQUARED 0.406, read-out: LUCIFERASE INFECTION ASSAY - IC50): 2.9 µM"
O=C(CN1CCC(Cc2ccccc2)CC1)NCc1ccc(F)cc1,4.07,"IC50 (PBLUC_HILL_SLOPE 12.9, PBLUC_R_SQUARED 0.271, read-out: LUCIFERASE INFECTION ASSAY - IC50): 3.43 µM"
Cc1nn(C)c(C)c1NC(=O)C(C)Sc1nnc(Nc2ccc(Oc3ccccc3)cc2)s1 (stereo not given),> 10,"IC50 (PBLUC_HILL_SLOPE 13, PBLUC_R_SQUARED 0.117, read-out: LUCIFERASE INFECTION ASSAY - IC50): 8.97 µM"
CC(Nc1ccc(N(C)C(C)C)c(F)c1)C(=O)N1CCCC1 (stereo not given),9.36,"IC50 (PBLUC_HILL_SLOPE 12.8, PBLUC_R_SQUARED 0.621, read-out: LUCIFERASE INFECTION ASSAY - IC50): 7.89 µM"
CC(C)(C)c1ccc(Oc2ccc(/C=C/C(=O)c3ccc(NC4=NCCCS4)cc3)cc2[N+](=O)[O-])cc1,> 10,"IC50 (PBLUC_HILL_SLOPE 13, PBLUC_R_SQUARED 0.461, read-out: LUCIFERASE INFECTION ASSAY - IC50): 8.77 µM"
Cc1cc(C)cc(NC(=O)C(NCC(C(C)C)N2CCOCC2)c2ccccc2)c1 (stereo not given),> 10,"IC50 (PBLUC_HILL_SLOPE 13.4, 2.47, PBLUC_R_SQUARED 0.208, 0.834, read-out: LUCIFERASE INFECTION ASSAY - IC50): 6.61 µM"
O=C(Nc1nc2ccccn2c1C(=O)NC1CCCCC1)c1ccc(F)c(F)c1,> 8.28,"IC50 (PBLUC_HILL_SLOPE 13.4, PBLUC_R_SQUARED 0.0564, read-out: LUCIFERASE INFECTION ASSAY - IC50): 7.37 µM"
Cc1cccc(C2CC(=O)Nc3[nH]c(-c4ccccc4)nc(=O)c32)c1 (stereo not given),> 9.96,"IC50 (PBLUC_HILL_SLOPE 13.4, PBLUC_R_SQUARED 0.0843, read-out: LUCIFERASE INFECTION ASSAY - IC50): 9.49 µM"
FC(F)Sc1ccc(Nc2ncnc3sccc23)cc1,> 10,"IC50 (PBLUC_HILL_SLOPE 12.8, PBLUC_R_SQUARED 0.441, read-out: LUCIFERASE INFECTION ASSAY - IC50): 9.17 µM"

Compound,IC90 [µM],further results
Cc1onc(-c2ccccc2)c1-c1ccnn1C(=O)Nc1cccc(C(F)(F)F)c1,> 8,"IC50 (PBLUC_HILL_SLOPE 13.1, PBLUC_R_SQUARED 0.207, read-out: LUCIFERASE INFECTION ASSAY - IC50): 7.19 µM"
CC1CCc2c(C(=O)Nc3cccc(Br)c3)csc2C1 (stereo not given),> 9.42,"IC50 (PBLUC_HILL_SLOPE 12.9, PBLUC_R_SQUARED 0.0655, read-out: LUCIFERASE INFECTION ASSAY - IC50): 9.3 µM"
O=C(Oc1ccc(/C=N/Nc2nc3ccccc3s2)c(OC(=O)c2ccco2)c1)c1ccco1,> 10,"IC50 (PBLUC_HILL_SLOPE 13.1, PBLUC_R_SQUARED 0.411, read-out: LUCIFERASE INFECTION ASSAY - IC50): 9.2 µM"
CO/N=C/NC(=O)/C(C#N)=C/N(C)C,> 16.8,"IC50 (PBLUC_HILL_SLOPE 13.3, PBLUC_R_SQUARED 0.155, read-out: LUCIFERASE INFECTION ASSAY - IC50): 14.6 µM"
CCCNC(=O)C(C)NC(=O)Nc1c(C)cccc1CC (stereo not given),> 10,"IC50 (PBLUC_HILL_SLOPE 13.4, PBLUC_R_SQUARED 0.0478, read-out: LUCIFERASE INFECTION ASSAY - IC50): > 10 µM"
C=CCn1c2ccccc2n2nc(C)c(C(=O)/C=C/c3ccccn3)c12,4.04,"IC50 (PBLUC_HILL_SLOPE 13.1, PBLUC_R_SQUARED 0.157, read-out: LUCIFERASE INFECTION ASSAY - IC50): 3.42 µM"
N#Cc1ccc(-c2cnc3cnc(-c4cccc(C(N)=O)c4)cn23)cc1,8.67,"IC50 (PBLUC_HILL_SLOPE 12.9, PBLUC_R_SQUARED 0.447, read-out: LUCIFERASE INFECTION ASSAY - IC50): 7.32 µM"
C/C(=N\NC(=S)NCC(C)(C)C)c1cc(F)cc(Cl)c1O,> 9.94,"IC50 (PBLUC_HILL_SLOPE 12.9, PBLUC_R_SQUARED 0.356, read-out: LUCIFERASE INFECTION ASSAY - IC50): 9.7 µM"
Clc1ccc(-c2n[nH]cc2CNCC2CN(Cc3ccccc3)CCO2)cc1 (stereo not given),> 10,"IC50 (PBLUC_HILL_SLOPE 12.9, PBLUC_R_SQUARED 0.0772, read-out: LUCIFERASE INFECTION ASSAY - IC50): 9.51 µM"
O=C(CSc1cccc[n+]1[O-])N1N=C2/C(=C/c3ccccc3)CCCC2C1c1ccccc1 (stereo not given),6.17,"IC50 (PBLUC_HILL_SLOPE 13.0, 1.48, PBLUC_R_SQUARED 0.151, 0.616, read-out: LUCIFERASE INFECTION ASSAY - IC50): 2.66 µM"
CN(C)S(=O)(=O)c1cccc(COC(=O)C2(c3ccc(F)cc3)CCCC2)c1,> 10,"IC50 (PBLUC_HILL_SLOPE 13, PBLUC_R_SQUARED 0.517, read-out: LUCIFERASE INFECTION ASSAY - IC50): 8.83 µM"
COCCCn1c(Sc2ncc(Br)cc2[N+](=O)[O-])nnc1-c1ccc(C(C)(C)C)cc1,> 6.52,"IC50 (PBLUC_HILL_SLOPE 13.2, PBLUC_R_SQUARED 0.0327, read-out: LUCIFERASE INFECTION ASSAY - IC50): > 6.52 µM"
CC(c1ccc(-n2cncn2)cc1)N(C)CC(=O)Nc1ccc(OC(F)(F)F)cc1 (stereo not given),> 10,"IC50 (PBLUC_HILL_SLOPE 12.9, PBLUC_R_SQUARED 0.556, read-out: LUCIFERASE INFECTION ASSAY - IC50): 9.67 µM"
Clc1ccc(-c2nc(-c3ccccc3)c(-c3ccccc3)n2CCc2ccc(Cl)cc2Cl)cc1,> 10,"IC50 (PBLUC_HILL_SLOPE 13, PBLUC_R_SQUARED 0.179, read-out: LUCIFERASE INFECTION ASSAY - IC50): 9.63 µM"
Cc1cc(C(=O)CN(C)Cc2nc(=O)c3ccccc3[nH]2)c(C)n1Cc1ccc(F)cc1,> 10,"IC50 (PBLUC_HILL_SLOPE 13.1, PBLUC_R_SQUARED 0.161, read-out: LUCIFERASE INFECTION ASSAY - IC50): 8.98 µM"
Cc1cc2c(cc1C)C(NC(C)c1ccccc1)=NC(C)(C)C2 (stereo not given),4.29,"IC50 (PBLUC_HILL_SLOPE 13.3, PBLUC_R_SQUARED 0.718, read-out: LUCIFERASE INFECTION ASSAY - IC50): 3.64 µM"
Cc1ccc(NC(=O)Cc2nc(-c3ccc4c(c3)OCO4)cs2)c(C)c1,> 10,"IC50 (PBLUC_HILL_SLOPE 12.9, PBLUC_R_SQUARED 0.436, read-out: LUCIFERASE INFECTION ASSAY - IC50): 8.84 µM"
Cc1ccc(NC(=S)Nc2cccc(C(F)(F)F)c2)c(C)c1,> 10.2,"IC50 (PBLUC_HILL_SLOPE 13, PBLUC_R_SQUARED 0.213, read-out: LUCIFERASE INFECTION ASSAY - IC50): 9.86 µM"
O=c1cc(CSc2nc3ccccc3s2)[nH]c2nc3ccccc3n12,3.5,"IC50 (PBLUC_HILL_SLOPE 13.4, PBLUC_R_SQUARED 0.218, read-out: LUCIFERASE INFECTION ASSAY - IC50): 2.97 µM"
COc1ccc(-c2cnc3cnc(-c4cccs4)cn23)cn1,4.6,"IC50 (PBLUC_HILL_SLOPE 13.2, PBLUC_R_SQUARED 0.556, read-out: LUCIFERASE INFECTION ASSAY - IC50): 3.89 µM"
